{"source": "patent US8178136B2", "about": "“Composition based on vegetal extracts of Ajuga reptans for preventing hair loss, stimulating the growth of hair, regulating the production of sebum” (Giuliani S.p.A., priority 2005, dated 2012)", "system": "5α-reductase", "assay": "in-vivo inhibitory activity of 5α-reductase: haematic levels of DHT in rats after oral administration", "design": "species or system rat", "conditions": "for Seric concentrations of DHT: individual rat values; for Seric concentrations of DHT, average: basal average 335.7", "procedure": "A study was carried out to determine in-vivo the inhibitory activity of 5α-reductase on the part of a total extract deriving from a cellular culture of Ajuga reptans.\nThe study was effected by determining the haematic levels of DHT (5α-dihydrotestosterone) on rats after administration of the extract being studied.\nFor the in-vivo study of the inhibition of 5α-reductase, Sprague-Dawley adult male rats were used (Charles River Italia) having a body weight of 200-250 g.\nThe animals were stalled under standard conditions: at a temperature of 22/23° C., with 65% relative humidity, exposing them to illumination cycles of 12 h light/12 h darkness.\nA standard diet in the form of pellets (standard diet, Charles River) was administered to the rats, with water ad libitum\nThe experimentation was carried out according to protocols authorized by the Committee for the Care and Use of Animals of the Università degli Studi of Milan. Tests were carried out on the rats, effected from the retro-orbital plexus, immediately before the pharmalogical treatment (t0) and subsequently at a distance of 3, 6 and 8 hours after administration.\nThe administration of the substances being studied was effected orally.\nIn correspondence with each test on the animals treated, tests were also effected on non-treated animals to determine the basal analyte level. Both testosterone and DHT are in fact characterized by a significant circadian fluctuation.\nThe plasma obtained from the whole blood treated with EDTA after centrifugation was preserved at −20° C. until dosage.\nThe plasmatic concentrations of DHT (dihydrotestosterone) were determined with a commercial kit (DSL, Chematil, Angri, SA) after extraction of the samples.\nAll the samples of an experimental set were dosed together to reduce the inter-analytic variability.", "note": "Where “and” joins values, the source holds several entries; their conditions need not be identical. Equal values may be shown once."}
{"smiles": "CC(C)(C)NC(=O)[C@H]1CC[C@H]2[C@@H]3CC[C@H]4NC(=O)C=C[C@]4(C)[C@H]3CC[C@]12C", "note": "[Finasteride]", "values": [{"measurement": "Seric concentrations of DHT", "setting": "Finasteride 1 mg oral, 3 hrs", "result": "569.6 pg/mL and 404.6 pg/mL and 530.0 pg/mL and 298.1 pg/mL and 505.3 pg/mL and 300.0 pg/mL"}, {"measurement": "Seric concentrations of DHT, average", "setting": "Finasteride 1 mg oral, 3 hrs, n=6", "result": 434.6, "unit": "pg/mL"}, {"measurement": "Seric concentrations of DHT", "setting": "Finasteride 1 mg oral, 6 hrs", "result": "592.1 pg/mL and 148.5 pg/mL and 420.1 pg/mL and 404.1 pg/mL and 565.0 pg/mL and 379.6 pg/mL"}, {"measurement": "Seric concentrations of DHT, average", "setting": "Finasteride 1 mg oral, 6 hrs, n=6", "result": 418.2, "unit": "pg/mL"}, {"measurement": "Seric concentrations of DHT", "setting": "Finasteride 1 mg oral, 8 hrs", "result": "530.1 pg/mL and 173.1 pg/mL and 110.0 pg/mL and 706.7 pg/mL and 140.1 pg/mL and 503.9 pg/mL"}, {"measurement": "Seric concentrations of DHT, average", "setting": "Finasteride 1 mg oral, 8 hrs, n=6", "result": 360.6, "unit": "pg/mL"}, {"measurement": "Seric concentrations of DHT", "setting": "Finasteride 5 mg oral, 3 hrs", "result": "641.0 pg/mL and 924.2 pg/mL and 569.4 pg/mL and 217.1 pg/mL and 618.6 pg/mL and 151.2 pg/mL"}, {"measurement": "Seric concentrations of DHT, average", "setting": "Finasteride 5 mg oral, 3 hrs, n=6", "result": 520.2, "unit": "pg/mL"}, {"measurement": "Seric concentrations of DHT", "setting": "Finasteride 5 mg oral, 6 hrs", "result": "49.7 pg/mL and 128.3 pg/mL and 176.9 pg/mL and 81.2 pg/mL and 205.2 pg/mL and 103.6 pg/mL and 54.4 pg/mL and 60.7 pg/mL"}, {"measurement": "Seric concentrations of DHT, average", "setting": "Finasteride 5 mg oral, 6 hrs, n=8", "result": 107.5, "unit": "pg/mL"}, {"measurement": "Seric concentrations of DHT", "setting": "Finasteride 5 mg oral, 8 hrs", "result": "576.6 pg/mL and 250.9 pg/mL and 300.1 pg/mL and 201.6 pg/mL and 108.8 pg/mL and 745.4 pg/mL"}, {"measurement": "Seric concentrations of DHT, average", "setting": "Finasteride 5 mg oral, 8 hrs, n=6", "result": 363.9, "unit": "pg/mL"}, {"measurement": "trend of the concentration of DHT after administration", "setting": "rats, oral, vs. basal levels", "result": "8 hours after treatment, the DHT rises returning to the basal levels"}]}
